Assay results from PMC9239047 (mBio, 2022).
Positions of bridges follow the written chain, without caps; N, C: chain ends. Residues, ends and D or L forms follow the SMILES beside them.

Tests used:
S. hominis agr-II = S. hominis agr-II P3::sGFP reporter assay (AH4553 + pCM41); format: cell-based, Staphylococcus hominis; conditions: for S. hominis agr-II reporter growth (OD600): increasing concentrations of synthetic AIP; for effect on S. hominis agr-II fluorescent signal (in words): increasing doses of synthetic AIP, early signal
MRSA agr-I = MRSA agr-I (Staphylococcus aureus, UniProt O07911); experiment: MRSA agr-I P3::YFP fluorescent reporter assay; format: cell-based
Sequence of MRSA agr-I (O07911 entry or part of it): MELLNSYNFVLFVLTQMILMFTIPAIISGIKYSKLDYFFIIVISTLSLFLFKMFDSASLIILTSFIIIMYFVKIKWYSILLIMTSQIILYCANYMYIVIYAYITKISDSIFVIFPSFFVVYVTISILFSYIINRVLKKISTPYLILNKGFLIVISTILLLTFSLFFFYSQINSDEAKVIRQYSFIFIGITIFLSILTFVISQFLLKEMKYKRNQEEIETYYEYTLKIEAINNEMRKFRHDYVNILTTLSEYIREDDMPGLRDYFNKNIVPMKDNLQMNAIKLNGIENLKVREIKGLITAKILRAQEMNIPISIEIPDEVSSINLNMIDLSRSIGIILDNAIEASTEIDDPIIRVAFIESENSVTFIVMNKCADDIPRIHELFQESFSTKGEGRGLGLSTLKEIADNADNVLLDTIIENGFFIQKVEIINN

S. hominis agr-I = S. hominis agr-I P3::sGFP reporter assay (AH5009 + pCM41); format: cell-based, Staphylococcus hominis; conditions: for S. hominis agr-I reporter growth (OD600): increasing concentrations of synthetic AIP; for effect on S. hominis agr-I fluorescent signal (in words): increasing doses of synthetic AIP, early signal
MRSA agr-IV = MRSA agr-IV (Staphylococcus aureus, UniProt Q309Z2); experiment: MRSA agr-IV P3::YFP fluorescent reporter assay; format: cell-based; conditions: for inhibition of MRSA agr-IV by synthetic AIP (in words): synthetic AIP dose response, 24 h fluorescence
Sequence of MRSA agr-IV (Q309Z2 entry or part of it): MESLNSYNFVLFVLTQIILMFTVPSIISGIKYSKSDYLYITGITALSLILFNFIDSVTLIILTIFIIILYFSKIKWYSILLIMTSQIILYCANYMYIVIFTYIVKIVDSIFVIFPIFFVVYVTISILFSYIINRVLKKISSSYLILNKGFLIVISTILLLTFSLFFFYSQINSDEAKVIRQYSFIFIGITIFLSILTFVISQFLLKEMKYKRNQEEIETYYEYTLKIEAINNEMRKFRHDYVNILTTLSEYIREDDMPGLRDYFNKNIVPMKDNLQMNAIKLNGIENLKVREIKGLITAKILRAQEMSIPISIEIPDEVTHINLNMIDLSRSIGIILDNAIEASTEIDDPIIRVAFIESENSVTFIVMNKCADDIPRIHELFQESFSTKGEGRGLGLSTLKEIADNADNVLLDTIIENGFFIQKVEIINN

MRSA agr-II = MRSA agr-II (Staphylococcus aureus, UniProt O33587); experiment: MRSA agr-II P3::YFP fluorescent reporter assay; format: cell-based
Sequence of MRSA agr-II (O33587 entry or part of it): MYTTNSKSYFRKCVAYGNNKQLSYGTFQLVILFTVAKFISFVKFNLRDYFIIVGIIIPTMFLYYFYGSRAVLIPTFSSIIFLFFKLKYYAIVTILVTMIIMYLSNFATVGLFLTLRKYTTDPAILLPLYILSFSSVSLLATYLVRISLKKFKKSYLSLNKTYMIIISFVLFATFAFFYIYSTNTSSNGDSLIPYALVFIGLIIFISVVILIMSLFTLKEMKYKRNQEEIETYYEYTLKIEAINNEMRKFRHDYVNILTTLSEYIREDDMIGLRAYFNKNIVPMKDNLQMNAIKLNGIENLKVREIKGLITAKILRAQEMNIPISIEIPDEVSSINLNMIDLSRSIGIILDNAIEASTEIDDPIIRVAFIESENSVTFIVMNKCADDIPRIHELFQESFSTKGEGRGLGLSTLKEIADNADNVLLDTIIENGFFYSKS

MRSA agr-III = MRSA agr-III (Staphylococcus aureus, UniProt O33590); experiment: MRSA agr-III P3::YFP fluorescent reporter assay; format: cell-based
Sequence of MRSA agr-III (O33590 entry or part of it): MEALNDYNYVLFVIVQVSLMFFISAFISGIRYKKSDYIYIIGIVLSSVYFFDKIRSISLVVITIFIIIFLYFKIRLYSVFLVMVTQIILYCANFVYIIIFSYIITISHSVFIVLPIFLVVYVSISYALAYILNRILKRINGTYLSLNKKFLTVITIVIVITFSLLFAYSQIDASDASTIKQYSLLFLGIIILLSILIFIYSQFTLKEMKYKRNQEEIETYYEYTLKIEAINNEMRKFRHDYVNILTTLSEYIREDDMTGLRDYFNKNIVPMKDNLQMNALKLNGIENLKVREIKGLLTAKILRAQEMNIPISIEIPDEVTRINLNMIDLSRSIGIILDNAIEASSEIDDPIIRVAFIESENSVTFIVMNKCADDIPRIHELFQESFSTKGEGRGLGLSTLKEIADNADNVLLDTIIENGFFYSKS

MRSA strain LAC = experiment: Murine epicutaneous infection; format: in vivo, C57BL/6J mice
USA300 MRSA (strain LAC) = experiment: Murine dermonecrosis model; format: in vivo, BALB/c mice; conditions: 10 or 50 μg synthetic AIP-II in DMSO mixed with 1 × 10^8 CFU MRSA, intradermal; vs vehicle; n = 10 per group; dose dependent
S. epidermidis agr-I = S. epidermidis agr-I (Staphylococcus epidermidis, UniProt O86861); experiment: S. epidermidis agr-I P3::sGFP reporter assay; format: cell-based
Sequence of S. epidermidis agr-I (O86861 entry or part of it): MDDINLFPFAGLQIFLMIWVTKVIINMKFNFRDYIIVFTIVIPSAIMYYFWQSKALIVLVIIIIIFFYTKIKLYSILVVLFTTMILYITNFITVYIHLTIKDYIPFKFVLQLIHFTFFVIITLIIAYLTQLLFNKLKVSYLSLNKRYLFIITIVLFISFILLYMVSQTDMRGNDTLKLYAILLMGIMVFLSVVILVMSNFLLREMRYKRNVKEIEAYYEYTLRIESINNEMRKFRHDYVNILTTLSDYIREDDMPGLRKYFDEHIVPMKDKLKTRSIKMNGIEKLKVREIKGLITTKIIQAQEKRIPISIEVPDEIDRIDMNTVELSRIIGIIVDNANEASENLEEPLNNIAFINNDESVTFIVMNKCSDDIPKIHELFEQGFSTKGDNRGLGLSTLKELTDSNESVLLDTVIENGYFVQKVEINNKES

MRSA = conditions: mouse model; cited from earlier work
[1] = test system: S. hominis AH5009 PSM-β1 production; experiment: Mass spectrometric detection of PSM-β1 in conditioned medium; format: cell-based, Staphylococcus hominis; conditions: 100 μM apicidin or DMSO, 8 h; LC-MS; triplicate injections of biological triplicates
[2] = test system: S. hominis AH5009 AgrA-regulated genes; experiment: RNA-seq of apicidin-treated S. hominis agr-I; format: cell-based, Staphylococcus hominis
[3] = cognate AIP, fluorescence at 8 h
[4] = 100 μM apicidin vs DMSO, over 24 h
[5] = 100 μM apicidin vs DMSO, 4-fold cutoff, false discovery rate P value ≤0.05
[6] = RNA-seq, S. hominis AH5009, 100 μM apicidin vs DMSO, 8 h, biological triplicate
[7] = RNA-seq, S. hominis AH5009, 100 μM apicidin vs DMSO, 8 h, outside 4-fold cutoff

Compound: CC(C)[C@H](NC(=O)[C@@H](NC(=O)[C@H](CCC(N)=O)NC(=O)[C@@H](N)CO)[C@@H](C)O)C(=O)N[C@H]1CSC(=O)[C@H](Cc2ccccc2)NC(=O)[C@H](Cc2ccc(O)cc2)NC(=O)CNC(=O)[C@H](CO)NC1=O [AIP-V] (H-SQTVCSGYF; thioester 5-C; N-terminus assumed)
- S. hominis agr-II reporter growth (OD600) (S. hominis agr-II): did not impact the growth
- effect on S. hominis agr-II fluorescent signal (in words) (S. hominis agr-II): modestly inhibited agr-II
- IC50 (MRSA agr-I): 43 nM
- S. hominis agr-I reporter growth (OD600) (S. hominis agr-I): did not impact the growth
- effect on S. hominis agr-I fluorescent signal (in words) (S. hominis agr-I): weak to negligible effects on agr-I
- IC50 (MRSA agr-IV): 3810 nM
- inhibition of MRSA agr-IV by synthetic AIP (in words) (MRSA agr-IV): poorly inhibited
- IC50 (MRSA agr-II): 59 nM
- IC50 (MRSA agr-III): 4 nM

Compound: C[C@@H]1NC(=O)[C@@H](NC(=O)[C@@H]2CCCN2C(=O)[C@H](CO)NC(=O)[C@H](Cc2ccc(O)cc2)NC(=O)[C@@H](N)CO)CSC(=O)[C@H](Cc2ccccc2)NC(=O)[C@H](Cc2ccc(O)cc2)NC(=O)[C@H]([C@@H](C)O)NC1=O [AIP-II] (H-SYSPCATYF; thioester 5-C; N-terminus assumed)
- concentration of synthetic AIP optimal to boost S. hominis agr-II fluorescent signal (S. hominis agr-II; [3]): 12.5 nM
- S. hominis agr-II reporter growth (OD600) (S. hominis agr-II): no effect on growth
- IC50 (MRSA agr-I): 15 nM
- barrier function by transepithelial water loss (TEWL) (MRSA strain LAC; 10 or 50 μg synthetic AIP-II with 1 × 10^8 CFU MRSA on gauze, 72 h topical, vs vehicle, n = 10 per group): retained more of their barrier function
- total CFU burden in epicutaneous lesions (MRSA strain LAC; 10 or 50 μg synthetic AIP-II, 72 h postinfection): no differences in CFU between groups
- gross morphology of the skin (MRSA strain LAC; synthetic AIP-II-treated vs vehicle control mice, 72 hpi): less redness, scaling, and erythema
- S. hominis agr-I reporter growth (OD600) (S. hominis agr-I): no effect on reporter growth
- IC50 (S. hominis agr-I; read-out: IC50, inhibition of S. hominis agr-I signaling, noncognate synthetic AIP dose response, relative fluorescence at 8 h, three independent experiments pooled): 9 nM
- IC50 (MRSA agr-IV): 1130 nM
- inhibition of MRSA agr-IV by synthetic AIP (in words) (MRSA agr-IV): poorly inhibited
- IC50 (MRSA agr-II): 2110 nM
- dermonecrotic lesion size (USA300 MRSA (strain LAC)): significantly smaller lesions
- IC50 (MRSA agr-III): 3 nM

Compound: CC(C)[C@H](NC(=O)[C@H](CC(N)=O)NC(=O)[C@H](Cc1ccc(O)cc1)NC(=O)[C@@H](N)CO)C(=O)N[C@H]1CSC(=O)[C@H](Cc2ccccc2)NC(=O)[C@H](Cc2ccc(O)cc2)NC(=O)CNC(=O)CNC1=O [AIP-I] (H-SYNVCGGYF; thioester 5-C)
- S. hominis agr-II reporter growth (OD600) (S. hominis agr-II): no impact on reporter growth
- IC50 (S. hominis agr-II; read-out: IC50, inhibition of S. hominis agr-II fluorescent signaling, noncognate synthetic AIP dose response, relative fluorescence at 8 h, three independent experiments pooled): 7 nM
- inhibition of S. epidermidis agr-I (in words) (S. epidermidis agr-I; synthetic AIP dose response): poor inhibitor
- S. epidermidis agr-I early fluorescent signal (S. epidermidis agr-I; synthetic AIP, first 8 h of incubation): boosted the fluorescent signal
- concentration of synthetic AIP that significantly boosted S. hominis agr-I fluorescent signal (S. hominis agr-I; [3]): ≥ 25 nM
- S. hominis agr-I reporter growth (OD600) (S. hominis agr-I): no effect on growth
- inhibition of MRSA agr-IV by synthetic AIP (in words) (MRSA agr-IV): poorly inhibited
- MRSA-associated AD symptoms (MRSA): effectively mitigates MRSA-associated AD symptoms

Compound: CCC(=O)CCCCC[C@@H]1NC(=O)[C@H]2CCCCN2C(=O)[C@H]([C@@H](C)CC)NC(=O)[C@H](Cc2cn(OC)c3ccccc23)NC1=O [apicidin]
- PSM-β1 presence in S. hominis cultures [1]: present only in S. hominis cultures treated with DMSO, not in those treated with apicidin
- S. hominis agr-I P3::sGFP growth (OD600) (S. hominis agr-I; [4]): no effect on growth
- S. hominis agr-I signaling (P3::sGFP fluorescence) (S. hominis agr-I; [4]): inhibited S. hominis agr-I signaling
- number of genes downregulated [2, 5]: 40 genes
- number of genes significantly upregulated [2, 5]: 7 genes
- Fold change, MOV58_00040 serine--tRNA ligase [2, 6]: -5.87 fold
- Fold change, MOV58_00405 arsenate reductase [2, 6]: -5.32 fold
- Fold change, MOV58_00410 anion permease [2, 6]: -4.39 fold
- Fold change, MOV58_00550 (S)-acetoin forming diacetyl reductase [2, 6]: -7.89 fold
- Fold change, MOV58_01010 acetoin reductase/dehydrogenase [2, 6]: -5.45 fold
- Fold change, MOV58_01015 yxel choloylglycine hydrolase family protein [2, 6]: -4.94 fold
- Fold change, MOV58_01105 excinuclease ABC subunit UvrA [2, 6]: 8.12 fold
- Fold change, MOV58_01110 arylamine N-acetyltransferase [2, 6]: 9.09 fold
- Fold change, MOV58_01115 ABC2 transporter permease [2, 6]: 9.05 fold
- Fold change, MOV58_01120 ABC transporter ATP binding protein btuD [2, 6]: 10.45 fold
- Fold change, MOV58_01125 DUF3169 family protein [2, 6]: 19.01 fold
- Fold change, MOV58_01130 helix turn helix transcriptional regulator [2, 6]: 18.5 fold
- Fold change, MOV58_02040 aldehyde dehydrogenase family protein [2, 6]: -4.94 fold
- Fold change, MOV58_05440 hypothetical protein [2, 6]: -5.09 fold
- Fold change, MOV58_05705 hypothetical protein [2, 6]: -4.08 fold
- Fold change, MOV58_05710 hypothetical protein [2, 6]: -6.86 fold
- Fold change, MOV58_05715 fructose-bisphosphatase class III [2, 6]: -6.94 fold
- Fold change, MOV58_05720 hypothetical protein [2, 6]: -5.64 fold
- Fold change, MOV58_05820 hypothetical protein [2, 6]: -9.59 fold
- Fold change, MOV58_06035 universal stress protein [2, 6]: -4.69 fold
- Fold change, MOV58_06695 RNA polymerase sigma factor RpoD [2, 6]: -10.14 fold
- Fold change, MOV58_07655 hypothetical protein [2, 6]: 4.07 fold
- Fold change, MOV58_07775 hypothetical protein [2, 6]: -4.58 fold
- Fold change, MOV58_07810 MerR family transcriptional regulator [2, 6]: -4.32 fold
- Fold change, MOV58_08480 beta class phenol soluble modulin [2, 6]: -11.36 fold
- Fold change, MOV58_08485 beta class phenol soluble modulin [2, 6]: -11.33 fold
- Fold change, MOV58_08490 beta class phenol soluble modulin [2, 6]: -9.37 fold
- Fold change, MOV58_08495 beta class phenol soluble modulin [2, 6]: -8.82 fold
- Fold change, MOV58_09035 hypothetical protein [2, 6]: -4.5 fold
- Fold change, MOV58_09040 IDEAL domain containing protein [2, 6]: -6.02 fold
- Fold change, MOV58_09615 Hypothetical protein [2, 6]: -4.82 fold
- Fold change, MOV58_09645 hypothetical protein [2, 6]: -5.25 fold
- Fold change, MOV58_09650 hypothetical protein [2, 6]: -5.02 fold
- Fold change, MOV58_09655 hypothetical protein [2, 6]: -4.73 fold
- Fold change, MOV58_09715 phosphoglycerate kinase [2, 6]: -6.94 fold
- Fold change, MOV58_09720 type I glyceraldehyde-3-phosphate dehydrogenase [2, 6]: -4.93 fold
- Fold change, MOV58_09725 CggR, central glycolytic genes regulator [2, 6]: -7.22 fold
- Fold change, MOV58_09730 hypothetical [2, 6]: -5.22 fold
- Fold change, MOV58_10080 fructose-specific PTS transporter subunit EIIC [2, 6]: -4.31 fold
- Fold change, MOV58_10085 1-phosphofruktokinase [2, 6]: -22.43 fold
- Fold change, MOV58_10090 DeoR/GlpR family DNA-binding transcription regulator [2, 6]: -27.93 fold
- Fold change, MOV58_10435 alpha/beta hydrolase [2, 6]: -6.85 fold
- Fold change, MOV58_10445 Hypothetical protein [2, 6]: -10.93 fold
- Fold change, MOV58_10515 flavodoxin family protein [2, 6]: -5.24 fold
- Fold change, MOV58_10990 Hypothetical protein [2, 6]: -4.65 fold
- Fold change, MOV58_11890 LytTR family DNA binding domain containing protein [2, 6]: -7.12 fold
- Fold change, MOV58_11895 DUF3021 domain-containing protein [2, 6]: -5.21 fold
- RNAIII expression, down -fold [2, 7]: 3.40 fold
- agrB expression, down -fold [2, 7]: 2.89 fold
- agrD expression, down -fold [2, 7]: 3.08 fold

Compound: CC[C@H](C)[C@H](NC(=O)[C@@H](N)[C@@H](C)O)C(=O)N[C@@H](CC(N)=O)C(=O)N[C@H](C(=O)N[C@H]1CSC(=O)[C@H](Cc2ccccc2)NC(=O)[C@H](Cc2ccc(O)cc2)NC(=O)CNC(=O)CNC1=O)[C@@H](C)O [AIP-IV] (H-TINTCGGYF; thioester 5-C; N-terminus assumed)
- S. hominis agr-II reporter growth (OD600) (S. hominis agr-II): did not impact the growth
- effect on S. hominis agr-II fluorescent signal (in words) (S. hominis agr-II): negligible effects on agr-II
- IC50 (MRSA agr-I): 128 nM
- S. hominis agr-I reporter growth (OD600) (S. hominis agr-I): did not impact the growth
- effect on S. hominis agr-I fluorescent signal (in words) (S. hominis agr-I): slightly boosted early agr-I signaling
- inhibition of MRSA agr-IV by synthetic AIP (in words) (MRSA agr-IV): not inhibited
- IC50 (MRSA agr-II): 140 nM
- IC50 (MRSA agr-III): 37 nM
